Measurements: PubChem BioAssay (NCI)
Several values for one entry are separate records, joined by “and”; a condition that tells them apart may be missing. Identical values can stand only once.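 Each compound was tested at five concentrations against cells in 96-well plates for 48 hours. GI50 = concentration required for 50% inhibition of growth. The concentration for full growth arrest is given as TGI.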

system: RXF 393 renal; assay: NCI-60 cell line screen, 48 h

| SMILES | TGI [µM] |
| --- | --- |
| CC1(n2nc(-c3ccccc3)n(-c3ccccc3)c2=O)CSC1 | > 100 |

system: SF-539 CNS; assay: NCI-60 cell line screen, 48 h

| SMILES | GI50 | TGI |
| --- | --- | --- |
| CC(=O)OC1CC(O)C23COC(O)C1(C)C2CC(O)C1(C)C3C(=O)C(O)C2(C)C(c3ccoc3)CC3OC321 (stereo unspecified) | 0.14 µM | > 100 µM |
| Cn1cc(C(=O)c2ccccc2)ccc1=O |  | > 100 µM |
| COc1ccc(C(C)c2cc3c(cc2OC)OCO3)cc1 (stereo unspecified) |  | 0.275 µM |
| O=C(CP(=O)(c1ccccc1)c1ccccc1)c1cccc(C(=O)CP(=O)(c2ccccc2)c2ccccc2)c1 |  | > 100 µM |
| CCc1[nH]c(=O)nc(N)c1-c1ccc(N2CCCCC2)c([N+](=O)[O-])c1 |  | > 100 µM |
| COC(=O)C(=O)C(C(=O)C(=O)Nc1ccccc1C(N)=O)c1nc2ccc(Cl)cc2[nH]c1=O (stereo unspecified) |  | > 100 µM |
| CCC#CC[C@H]1C/C=C2/C(=O)C=C[C@@H]2C/C=C\CCCC(=O)O1 | 1.94 µM | 7.67 µM |
| COc1cc(OC)c(/C=C/C(=O)c2c(OC)cccc2OC)c(OC)c1 | 0.533 µM | 4.41 µM |
| COc1cc[nH]c1/C=C1\C(=O)Nc2ccccc21 | 7.02 µM | > 25 µM |
| CC(=O)OC[C@]12CC[C@H]3[C@@H](C[C@H]4O[C@]45[C@@H](O)C=CC(=O)[C@]35C)[C@@H]1CC[C@@H]2[C@H](C)[C@H]1CC(C)=C(C)C(=O)O1 | 0.303 µM and 0.2 µM | 0.73 µM and 0.452 µM |
| O=C(Nc1ccc(Cl)cc1)c1cc(-c2ccc(F)cc2)c2sc(=O)[nH]c2n1 | 2.07 µM | 5.71 µM |
| Cc1cn2c(/C=C3/C(=O)N(C)c4ccccc43)c(C)nc2s1 | 10.7 µM | 52.9 µM |
| CCOC(=O)NC(=O)c1cn(CCOCCOC(=O)NCCCCCCNC(=O)OCCOCCn2cc(C(=O)NC(=O)OCC)c(=O)[nH]c2=O)c(=O)[nH]c1=O |  | > 100 µM |
| Cc1ccc(C(=NN=C(N)N)c2ccc(C)cc2)cc1 | 2.1 µM | 6.99 µM |
| CCS(=O)(=O)c1ccc(OC)c(Nc2ncc(-c3cccc(OC)c3)o2)c1 | 6.96 µM | > 25 µM |
| CCCCN=C(N)c1ccc(OCCSCCOc2ccc(C(N)=NCCCC)cc2)cc1 | 5.59 µM | > 100 µM |
| COC(=O)c1cccc2cccc(C(=O)Nc3ccc(C)cc3C)c12 |  | > 100 µM |
| CC(C)c1ccc(C(=O)Nc2sc3c(c2C(N)=O)CCC(=O)C3)cc1 | 0.359 µM | 1.49 µM |
| Cc1ccccc1N(CCC#N)C1=NN(C(=O)CC(=O)Nc2ccccc2)C(c2ccccc2)C1 (stereo unspecified) |  | > 100 µM |
| CC1(n2nc(-c3ccccc3)n(-c3ccccc3)c2=O)CSC1 |  | > 100 µM |

system: RPMI-8226 leukemia; assay: NCI-60 cell line screen, 48 h

| SMILES | GI50 | TGI |
| --- | --- | --- |
| CC(=O)OC1CC(O)C23COC(O)C1(C)C2CC(O)C1(C)C3C(=O)C(O)C2(C)C(c3ccoc3)CC3OC321 (stereo unspecified) | < 0.01 µM | 0.0237 µM |
| Cn1cc(C(=O)c2ccccc2)ccc1=O |  | > 100 µM |
| COc1ccc(C(C)c2cc3c(cc2OC)OCO3)cc1 (stereo unspecified) |  | > 48.6 µM |
| O=C(CP(=O)(c1ccccc1)c1ccccc1)c1cccc(C(=O)CP(=O)(c2ccccc2)c2ccccc2)c1 |  | > 100 µM |
| CCc1[nH]c(=O)nc(N)c1-c1ccc(N2CCCCC2)c([N+](=O)[O-])c1 |  | > 100 µM |
| COC(=O)C(=O)C(C(=O)C(=O)Nc1ccccc1C(N)=O)c1nc2ccc(Cl)cc2[nH]c1=O (stereo unspecified) |  | > 100 µM |
| CCC#CC[C@H]1C/C=C2/C(=O)C=C[C@@H]2C/C=C\CCCC(=O)O1 | 0.267 µM | 1.86 µM |
| COc1cc(OC)c(/C=C/C(=O)c2c(OC)cccc2OC)c(OC)c1 | 0.666 µM | > 100 µM |
| COc1cc[nH]c1/C=C1\C(=O)Nc2ccccc21 | 14.5 µM | > 25 µM |
| CC(=O)OC[C@]12CC[C@H]3[C@@H](C[C@H]4O[C@]45[C@@H](O)C=CC(=O)[C@]35C)[C@@H]1CC[C@@H]2[C@H](C)[C@H]1CC(C)=C(C)C(=O)O1 | 0.26 µM and 0.107 µM | 0.846 µM and 0.446 µM |
| O=C(Nc1ccc(Cl)cc1)c1cc(-c2ccc(F)cc2)c2sc(=O)[nH]c2n1 | 0.391 µM | 2.22 µM |
| Cc1cn2c(/C=C3/C(=O)N(C)c4ccccc43)c(C)nc2s1 | 17 µM | > 100 µM |
| CCOC(=O)NC(=O)c1cn(CCOCCOC(=O)NCCCCCCNC(=O)OCCOCCn2cc(C(=O)NC(=O)OCC)c(=O)[nH]c2=O)c(=O)[nH]c1=O |  | > 100 µM |
| Cc1ccc(C(=NN=C(N)N)c2ccc(C)cc2)cc1 | 1.07 µM | 4.87 µM |
| CCS(=O)(=O)c1ccc(OC)c(Nc2ncc(-c3cccc(OC)c3)o2)c1 | > 16.5 µM | > 25 µM |
| CCCCN=C(N)c1ccc(OCCSCCOc2ccc(C(N)=NCCCC)cc2)cc1 | 2.71 µM | 53.4 µM |
| COC(=O)c1cccc2cccc(C(=O)Nc3ccc(C)cc3C)c12 |  | > 100 µM |
| CC(C)c1ccc(C(=O)Nc2sc3c(c2C(N)=O)CCC(=O)C3)cc1 | 0.127 µM | 0.691 µM |
| Cc1ccccc1N(CCC#N)C1=NN(C(=O)CC(=O)Nc2ccccc2)C(c2ccccc2)C1 (stereo unspecified) |  | > 100 µM |
| CC1(n2nc(-c3ccccc3)n(-c3ccccc3)c2=O)CSC1 |  | > 100 µM |

system: SF-268 CNS; assay: NCI-60 cell line screen, 48 h

| SMILES | GI50 [µM] | TGI [µM] |
| --- | --- | --- |
| CC(=O)OC1CC(O)C23COC(O)C1(C)C2CC(O)C1(C)C3C(=O)C(O)C2(C)C(c3ccoc3)CC3OC321 (stereo unspecified) | 2.2 | > 100 |
| Cn1cc(C(=O)c2ccccc2)ccc1=O |  | > 100 |
| COc1ccc(C(C)c2cc3c(cc2OC)OCO3)cc1 (stereo unspecified) |  | > 56.2 |
| O=C(CP(=O)(c1ccccc1)c1ccccc1)c1cccc(C(=O)CP(=O)(c2ccccc2)c2ccccc2)c1 |  | > 100 |
| CCc1[nH]c(=O)nc(N)c1-c1ccc(N2CCCCC2)c([N+](=O)[O-])c1 |  | > 100 |
| COC(=O)C(=O)C(C(=O)C(=O)Nc1ccccc1C(N)=O)c1nc2ccc(Cl)cc2[nH]c1=O (stereo unspecified) |  | > 100 |
| CCC#CC[C@H]1C/C=C2/C(=O)C=C[C@@H]2C/C=C\CCCC(=O)O1 | 1.23 | 4.55 |
| COc1cc(OC)c(/C=C/C(=O)c2c(OC)cccc2OC)c(OC)c1 | 1.14 | > 42.1 |
| COc1cc[nH]c1/C=C1\C(=O)Nc2ccccc21 | 11.2 | > 25 |
